Tests used:
[1] = system: caspase-1 (inflammasome activation) in urothelial cells; assay: Caspase-1 activity in isolated mouse urothelial cells treated with diabetic DAMPS in vitro; conditions: DAMP 24 h (ATP 1 h)
[2] = system: caspase-1 activation in urothelial cells; assay: Caspase-1 assay in isolated rat urothelial cells treated with stone DAMPs, with or without inhibitors; conditions: for maximal response of caspase-1 activation: normalized to 1.25 mM ATP 1 h; for concentration sufficient to completely suppress caspase-1 activation in MSU-treated cells: 1.25 μg/mL MSU 24 h
Protocol: Briefly, rats were sacrificed and the bladders removed and placed in sterile PBS. Bladders were then inverted over an 18-gauge blunt tip needle, inflated with PBS, and a purse string suture was used to tie off the bladder. The inflated bladder was then submerged in Collagenase P (1 mg/ml in complete media) and shaken for 1 hour at 37° C. […] Media was removed and replaced with fresh media (90 μL for agonist studies, 80 μL for inhibitor studies) just prior to the start of experimental treatments.
Using PBS (for CPPD) or complete media (for MSU), 1:2 serial dilutions were prepared. Wells were then treated with 10 μL of the appropriate dilution of stone DAMP for a final volume of 100 μL. After treatment, cells were incubated for another 24 hours at 37° C.
For inhibition response studies, the general ROS scavenger N-acetylcysteine was prepared to the stock concentration of 5 mM for MSU treatment and to 50 mM for CPPD treatment. Prior to treatment, the stock concentration of NAC was buffered to pH 7.2. […] Using complete media for NAC and PBS for Verapamil, 1:2 serial dilutions were prepared. Cells were treated with 10 μL of NAC or Verapamil and incubated at 37° C. for 1 or 4 hours, respectively. […] Plates were then incubated for an additional 24 hours at 37° C.
Briefly, media was removed and cells lysed in 50 μl lysis buffer (10 mM MgCl2 and 0.25% Igepal CA-630) for 5 minutes. An additional 50 μL of storage buffer (40 mM HEPES (pH 7.4), 20 mM NaCl, 2 mM EDTA and 20% glycerol) was added, and the plates frozen at −80° C. until use (>30 minutes). […] Plates were then incubated in the dark for 1 hour at 37° C. with mild shaking. Florescence was then measured (excitation 400 nm, emission 505 nm).

BOO [3] = assay: Evans blue assay in hippocampus after BOO; assay type: in vivo, rat
Protocol: (§1) Sides were alternated thereafter.
Rats were weighed and then injected (i.v. 3 ml/kg) with 2% Evan's blue dye in sterile saline by an investigator blinded to the groups (Belayev et al. (1996) Brain Res 739: 88-96). After one hour, rats were euthanized and transcardially perfused with cold PBS to remove intravascular dye. The brain was isolated and the hippocampus dissected, weighed and placed into formamide (0.25 ml) overnight (56° C.). Absorbance (620 nm) was measured and compared to a standard curve to calculate pg Evans blue/μg tissue.

BOO [4] = assay: Density of activated microglia (IbA1/AIF1) in hippocampus after BOO; assay type: in vivo, rat; conditions: 12 weeks of BOO; glyburide pellet
Protocol: as §1
(§2) Brains were fixed (10% neutral buffered formalin; 48 h, rt) and grossly cut (coronally) to the hippocampus before being embedded in paraffin with the plane of the hippocampus on the block face. Citrate antigen retrieval was used prior to staining 10 μm coronal sections with anti-IbA1/AIF1 (1:500) (NBP2-19019; Novus Biologicals, Centennial, Colo.) or Anti-Ki67 (1:500) (ab15580; Abcam, Cambridge, Mass.) via standardard methodology. IbA1 was visualized via HRP development (Vectastain ABC Kit; Vector, Burlingame, Calif.), biotinylated secondary antibody provided). Ki-67 was visualized using a goat anti-rabbit secondary antibody conjugated to Alexa Fluor 488 (111-545-144; Jackson ImmunoResearch Labs, West Grove, Pa.). […]
(§3) A Zeiss Axio Imager 2 microscope (Zeiss, Oberkochen, Germany) running Zen software (Zeiss) using the tiling and stitching feature was used to scan one entire hemisphere. […] Slides were quantitated by a researcher blinded to the groups. For microglia, we demarcated 600,000-700,000 μm^2 of the fascia dentata, counted the number of black/brown spots with two or greater associated tendrils and calculated microglial density. For Ki-67^+ cells we demarcated the entire dentate gyrus, CA1, CA2 and CA3 regions, quantitated nuclei (DAPI^+) that were Ki-67^+ (green florescence) and calculated the density.

BOO [5] = assay: Density of Ki-67+ proliferating cells in hippocampus after BOO; assay type: in vivo, rat; conditions: 12 weeks of BOO; glyburide pellet
Protocol: as §1, §2, §3

BOO [6] = assay: Open field assay after BOO; assay type: in vivo, rat; conditions: 12 weeks of BOO; glyburide pellet; fluoxetine ≈20 mg/kg/day in drinking water, last 4 weeks
BOO [7] = assay: Sucrose preference assay after BOO; assay type: in vivo, rat; conditions: 12 weeks of BOO; glyburide pellet; fluoxetine ≈20 mg/kg/day in drinking water, last 4 weeks
[8] = cited from earlier work
BOO [9] = assay: Bladder weight after bladder outlet obstruction (BOO); conditions: 12 weeks of BOO; glyburide 50 mg 21-day slow release pellet
Protocol: For most studies rats were assigned to 4 groups; 1) Control, 2) Sham, 3) BOO or 4) BOO+glyburide (Gly). […] For Sham and all BOO groups, animals were anesthetized [ketamine hydrochloride (90 mg/kg), xylazine (10 mg/kg); i.p.] and a 1 mm o.d. catheter (P50 tubing) inserted transurethrally. BOO was created by urethral ligation over a 1 mm catheter. A 5-0 silk suture was passed around the urethra and tied securely for BOO and loosely for Sham. The catheter was removed and the abdominal wall closed. For BOO+Gly, a subcutaneous pocket was made on the side of the neck and a single 50 mg, 21-day slow release pellet (Innovative Research of America, Sarasota, Fla.) inserted and the incision closed. A new pellet was placed (contralateral side) after 21 days. Sides were alternated thereafter.
Bladders from the various groups indicated in FIG. 18 were weighed when they were removed for the various endpoints in this experiment.

[10] = cited from earlier work; remark: listed apart in the source

CN(N=O)C(=O)N[C@H]1C(O)O[C@H](CO)[C@@H](O)[C@@H]1O (mixture of isomers) [streptozotocin]
caspase-1 activity (inflammasome activation) [1]: directly activates the inflammasome

Nc1ncnc2c1ncn2[C@@H]1O[C@H](COP(=O)(O)OP(=O)(O)OP(=O)(O)O)[C@@H](O)[C@H]1O [ATP]
caspase-1 activity (inflammasome activation) [1]: elicited a classic dose response

CCCCCCCCCCCCC/C=C/[C@@H](O)[C@H](CO)NC(=O)CCCCC [C6-ceramide, N-hexanoyl-D-erythro-sphingosine]
caspase-1 activity (inflammasome activation) [1]: activation of caspase-1

O=P([O-])([O-])OP(=O)([O-])[O-].[Ca+2].[Ca+2] [CPPD, calcium pyrophosphate]
maximal response of caspase-1 activation ([2]; 24 h treatment): approximately 50 % of the ATP response | EC50 ([2]; Rattus norvegicus, 24 h, read-out: EC50 of caspase-1 activation): 62.5 µg/mL

COc1ccc(Cl)cc1C(=O)NCCc1ccc(S(=O)(=O)NC(=O)NC2CCCCC2)cc1 [GLY, glyburide]
Evan's blue dye extravasation in the hippocampus (BOO [3]; 6 weeks of BOO, glyburide treatment): blocked | leakage of Evan's blue into the hippocampus (BOO [3]; 12 weeks of BOO, glyburide pellet): reduced back to control levels | density of activated microglia in the hippocampus (BOO [4]): reduced back to control levels | concentration of proliferating cells (Ki-67+) in the hippocampus (BOO [5]): blocked | open field: time exploring the middle of the field (BOO [6]): restored this behavior | sucrose preference (BOO [7]): restored | crossing of the blood brain barrier ([8]; intact barrier): does not cross the blood brain barrier | binding in the serum ([8]; serum): mostly albumin-bound | bladder weight (BOO [9]): suppresses this increase

O=c1[nH]c(=O)c2[nH]c([O-])nc2[nH]1.[Na+] [MSU, monosodium urate]
caspase-1 activity (inflammasome activation) [1]: activation of caspase-1 | EC50 of caspase-1 activation ([2]; 24 h treatment of rat urothelial cells): 0.156 µg/mL | maximal response of caspase-1 activation ([2]; 24 h treatment): 25 % of the ATP response

O=S(=O)([O-])CCS.[Na+] [Mesna, 2-mercaptoethane sulfonate sodium]
effects on bone marrow, hepatic, renal or CNS function ([10]; doses up to 100 mg/kg): no apparent effects on bone marrow, hepatic, renal or CNS function | fate in plasma ([10]; only a very small portion remaining in circulation): rapid oxidation in plasma

CC(=O)N[C@@H](CS)C(=O)O [NAC, N-acetylcysteine]
concentration sufficient to completely suppress caspase-1 activation in MSU-treated cells [2]: 500 µM | concentration sufficient to completely suppress caspase-1 activation in CPPD-treated cells ([2]; 62.5 μg/mL CPPD 24 h, NAC 1 h before): 5 mM

COc1ccc(CCN(C)CCCC(C#N)(c2ccc(OC)c(OC)c2)C(C)C)cc1OC (stereo not shown) [Verapamil]
concentration sufficient to completely suppress caspase-1 activation in MSU-treated cells [2]: 150 µM | IC50 ([2]; Rattus norvegicus, read-out: IC50 of caspase-1 activation in CPPD-treated cells): 100 µM

O=C([O-])C(=O)[O-].[Ca+2] [calcium oxalate]
caspase-1 activation in urothelial cells ([2]; 24 h treatment): activates caspase-1 in urothelial cells in a dose-dependent manner

CNCCC(Oc1ccc(C(F)(F)F)cc1)c1ccccc1 (stereo not shown) [fluoxetine]
open field: time exploring the middle of the field (BOO [6]): restored the exploratory behavior of these rats back to levels not statistically different from control | sucrose preference (BOO [7]): restored sucrose preference back to levels not statistically different from control

AGES
caspase-1 activity (inflammasome activation) [1]: activation of caspase-1

B1: HMGB-1: high mobility group box 1 protein (ProSci), diabetic DAMP (protein, UniProt P09429 1-215, looked up)
High mobility group protein B1: MGKGDPKKPRGKMSSYAFFVQTCREEHKKKHPDASVNFSEFSKKCSERWKTMSAKEKGKFEDMAKADKARYEREMKTYIPPKGETKKKFKDPNAPKRPPSAFFLFCSEYRPKIKGEHPGLSIGDVAKKLGEMWNNTAADDKQPYEKKAAKLKEKYEKDIAAYRAKGKPDAAKKGVVKAEKSKKKKEEEEDEEDEEDEEEEEDEEDEDEEEDDDDE
caspase-1 activity (inflammasome activation) [1]: activation of caspase-1

— patent publication US11559536B2, “Compositions and methods for the treatment of inflammation in urological pathology” (Duke University, priority 2019, dated 2023)
